Experimental data: patent US20050277602A1, “Methods employing agonists of P38 map kinase for the treatment of asthma” (priority 2004, published 2005)
Where “and” joins values, the source holds several entries; their conditions need not be identical. Identical values can stand only once. Entries after “also recorded” stand apart in the source; their conditions may differ. Like-named read-outs stand apart in the source and are kept apart here.

What was measured:
rabbit ASM tissues [1] = experiment: Constrictor responses to acetylcholine in isolated rabbit ASM tissues (organ bath, isometric tension); format: cell-based; settings: for effect on constrictor responses to ACh in tissues not exposed to Der p1: control (vehicle-exposed) ASM; for maximal constrictor response (Tmax) to ACh: mean±SE
Description: (§1) Following general anesthesia with xylazine (10 mg/kg) and ketamine (50 mg/kg), rabbits were sacrificed with an overdose of pentobarbital (125 mg/kg). As described previously (Grunstein et al. (2001) Am J Physiol Lung Cell Mol Physiol 280:L229-L238), the tracheae were removed via open thoracotomy, the loose connective tissue and epithelium were carefully scraped and removed, and the tracheae were divided into ring segments. Each alternate ring was incubated for 24 hours at room temperature in the presence of either vehicle (saline) alone (control), vehicle containing cysteine (5 mM), or varying concentrations of affinity purified Der p1 allergen (0.1, 0.5, 1.0, 5.0 μg/ml) both in the absence and presence of cysteine, as addition of the latter is required to restore the cysteine protease activity of the purified Der p1. In parallel experiments, 30 min prior to incubation in control or Der p1-containing medium, ASM segments were treated with either the specific cysteine protease inhibitor, E-64 (trans-epoxysuccinyl-L-leucyl-amido (4-guanidino)-butane; 1 μM), the serine protease inhibitor, leupeptin (1 μM), the MEK1/2-specific inhibitors, U0126 (5 μM) or PD98059 (10 μM), or the specific p38 MAP kinase inhibitors, SB202190 (10 μM) or SB203580 (10 μM).
(§2) Following incubation, the ASM segments were placed in organ baths containing modified Krebs-Ringer solution aerated with 5% CO2 in oxygen (pH: 7.35-7.40), and the tissues were attached to force transducers from which isometric tension was continuously monitored on a multichannel recorder, as previously described (Hirst et al. (2002) Am J Respir Crit Care Med 165:1161-71). Cholinergic contractility was then assessed in the ASM segments by cumulative administration of acetylcholine (ACh; 10^−10 to 10^−4 M). Thereafter, the tissues were repeatedly rinsed with fresh buffer, and subsequent relaxation responses to isoproterenol (10^−10-10^−4 M) were generated after the tissues were half-maximally contracted with ACh. The constrictor dose-response curves to ACh were analyzed in terms of each tissue's maximal isometric contractile force (Tmax) to the agonist, and the relaxation responses to isoproterenol were assessed in terms of % maximal relaxation (Rmax) from the initial level of induced cholinergic contraction, and sensitivity to the relaxing agent was determined as the corresponding pD50 value (i.e., geometric mean ED50 value) associated with 50% of Rmax.

rabbit ASM tissues [2] = experiment: Relaxation responses to isoproterenol in isolated rabbit ASM tissues half-maximally contracted with ACh; format: cell-based; settings: for effect on relaxation responses to isoproterenol in tissues not exposed to Der p1: control ASM
Description: as §1, §2

ERK1/2 = experiment: Immunoblot analysis of phosphorylated ERK1/2 in rabbit ASM tissues; format: cell-based; settings: for effect on Der p1-induced expression of phosphorylated ERK1/2: Der p1-exposed ASM pretreated/co-treated with E-64, SB202190 or anisomycin (50 ng/ml)
Description: (§3) Protein levels of phosporylated and total ERK1/2 and p38 MAP kinase were assessed by Western blot analysis of whole cell lysates isolated from rabbit ASM tissues following treatment with either vehicle alone or cysteine-activated Der p1 (1 μg/ml), both in the absence and presence of E-64, SB202190, or anisomycin. The tissues were homogenized and proteins extracted in a buffer containing 50 mM Tris-HC 1,150 mM NaCl, 1 mM EDTA (pH 7.4) with 1 mM phenylmethylsulfonyl fluoride, 5 μg/mL aprotinin, and 5 μg/mL leupeptin. Following removal of insoluble debris by centrifugation, gel-loading buffer was added to the supernatants, and extracts were then loaded (using 30 μg total protein/sample) on a 10% SDS-PAGE gel for immunoblotting after transferring to a nitrocellulose membrane. The membranes were blocked with 5% nonfat dry milk and then incubated overnight with monoclonal mouse anti-human phosphotyrosine-threonine (Thr180/Tyr182)-p38 MAP kinase and p38 MAP kinase, and anti-human phosphotyrosine-threonine (Thr202/Tyr204)-p44/42 (ERK1/2) and p44/42 primary antibodies. The kinase levels were detected using enhanced chemiluminescence after a 1-hour incubation with a 1:1,000 dilution of horseradish peroxidase (HRP)-conjugated goat-anti-mouse secondary antibody, followed by exposure to autoradiography film. Protein band intensities were quantified using Alphalmager, and the data normalized relative to those obtained in untreated ASM samples.

p38 MAP kinase = experiment: Immunoblot analysis of phosphorylated p38 MAP kinase in rabbit ASM tissues; format: cell-based; settings: for expression of phosphorylated p38 MAP kinase relative to control (unstimulated) ASM: tissues exposed for 30 min, anisomycin 50 ng/ml or Der p1 alone
Description: as §3

[3] = test system: cultured human ASM (HASM) cells; experiment: IgE-induced release of IL-6 from cultured human ASM cells (ELISA); format: cell-based
Description: Human airway smooth muscle cells were purchased from BioWhittaker, Inc., (Walkersville, […].) The cells were cultured in 100 mm dishes in Ham's F 12 nutrient mixture (Invitrogen, Carlsbad Calif.) supplemented with 10% FBS (Hyclone, Logan, Utah) under 5% CO2 environment. After attaining 90% confluence in cell culture, the cells were used for the studies described in Example 2.
Preparations of IgE immune complexes containing human IgE and mouse monoclonal IgG2B (anti-IgE) (Biodesign International, Saco, Me.) at a 15/5 μg ratio were added to cells 24 hr after serum deprivation. The cells were harvested at the indicated time points for immunoblotting and media were collected for ELISA analysis as described below.
IL 6 accumulation in the ASM cell culture media was detected using an ELISA kit for IL 6 purchased from Research Diagnostics Inc. (Flanders, N.J.). Culture media was diluted 1:50 into a sample dilution buffer supplied in the kit. The experiments were carried out according to the manufacturer's protocol.

OVA-sensitized mice = OVA-sensitized mice treated with U0126; cited from earlier work
HL-60 leukemia cells = settings: cited from earlier work
ASM preparations = experiment: Intracellular cAMP accumulation in ASM preparations (EIA); format: cell-based, rabbit; settings: tissues exposed to Der p1; data not shown
Description: Intracellular cAMP levels were assayed in control (untreated) and Der p1-treated ASM preparations under baseline (unstimulated) conditions and at 10 min following administration of isoproterenol (0.1-10 μM). Following stimulation with isoproterenol, the tissues were homogenized and the cAMP levels were measured using the Form a A cyclic AMP “PLUS” EIA kit (Biomol Inc., Plymouth Meeting, Pa.) following manufacturer's protocol.

[4] = Der p1-exposed ASM, E-64 1 μM, leupeptin 1 μM, U0126 5 μM, PD98059 10 μM, SB202190/SB203580 10 μM, anisomycin 50 ng/ml
[5] = Der p1 not pre-activated with cysteine (inactivated), data not shown
[6] = Der p1-exposed tissues, densitometry, 4 experiments

| Molecule | effect of pretreatment on Der p1-induced enhanced constrictor responsiveness to ACh (rabbit ASM tissues [1]; [4]) | effect on constrictor responses to ACh in tissues not exposed to Der p1 (rabbit ASM tissues [1]) | effect of pretreatment on Der p1-induced impaired relaxation responsiveness to isoproterenol (rabbit ASM tissues [2]; [4]) | effect on relaxation responses to isoproterenol in tissues not exposed to Der p1 (rabbit ASM tissues [2]) | effect on Der p1-induced expression of phosphorylated ERK1/2 (ERK1/2) | further results |
| --- | --- | --- | --- | --- | --- | --- |
| CC(C)C[C@H](NC(=O)[C@H]1O[C@@H]1C(=O)O)C(=O)NCCCCN=C(N)N (relative stereo) [E-64, trans-epoxysuccinyl-L-leucyl-amido (4-guanidino)-butane] | largely abrogated | no effect | prevented | no effect | neither the levels of phosphorylated ERK1/2 nor p38 MAP kinase were appreciably altered | effect on Der p1-induced expression of phosphorylated p38 MAP kinase (p38 MAP kinase): neither the levels of phosphorylated ERK1/2 nor p38 MAP kinase were appreciably altered |
| COc1cccc(-c2cc(=O)c3ccccc3o2)c1N [PD98059] | qualitatively comparable opposing effects; also recorded: largely prevented | neither of these inhibitors produced a significant change | qualitatively comparable opposing effects; also recorded: largely prevented | neither of these inhibitors produced a significant change |  |  |
| Oc1ccc(-c2nc(-c3ccncc3)c(-c3ccc(F)cc3)[nH]2)cc1 [SB202190] | further augmented |  | further significantly impaired |  | distinctly enhanced | maximal constrictor response (Tmax) to ACh (rabbit ASM tissues [1]; Der p1-exposed tissues pretreated with SB202190 (10 μM)): 136.2±6.2 g/g ASM wt.; maximal relaxation (Rmax) to isoproterenol (rabbit ASM tissues [2]; Der p1-exposed tissues pretreated with SB202190 (10 μM), mean): 37.6±7.1%; IgE-induced release of IL-6, augmented ([3]; IgE-exposed HASM cells pretreated with SB-202190): approximately 9 fold |
| C[S+]([O-])c1ccc(-c2nc(-c3ccncc3)c(-c3ccc(F)cc3)[nH]2)cc1 (centres unmarked) [SB203580] | qualitatively comparable opposing effects | neither of these inhibitors produced a significant change | qualitatively comparable opposing effects | neither of these inhibitors produced a significant change |  |  |
| N#CC(=C(/N)Sc1ccccc1N)/C(C#N)=C(\N)Sc1ccccc1N [U0126] |  |  |  |  |  | effect of pretreatment on Der p1-induced enhanced constrictor responsiveness to ACh (rabbit ASM tissues [1]): completely abrogated; effect of pretreatment on Der p1-induced impaired relaxation responsiveness to isoproterenol (rabbit ASM tissues [2]): largely ablated; effect on IgE-induced release of IL-6 ([3]; IgE-exposed HASM cells, concomitant pretreatment with U-0126): completely abrogated; airway hyperresponsiveness, elevated intrapulmonary eosinophil counts and cytokine levels (OVA-sensitized mice): significantly inhibit |
| COc1ccc(C[C@H]2NC[C@H](O)[C@H]2OC(C)=O)cc1 [anisomycin] | completely abrogated | no effect | largely prevented | no significant effect | largely abrogated | effect on phosphorylated ERK1/2 expression in unstimulated ASM (ERK1/2; anisomycin 50 ng/ml, 30 min, no Der p1): essentially no effect; expression of phosphorylated p38 MAP kinase relative to control (unstimulated) ASM (p38 MAP kinase): increased expression; stimulated ERK activity (HL-60 leukemia cells; stimulated HL-60 cells): inhibits; basal ERK activity (HL-60 leukemia cells; unstimulated HL-60 cells): no effect |
| CC(=O)N[C@@H](CC(C)C)C(=O)N[C@@H](CC(C)C)C(=O)N[C@H](C=O)CCCNC(=N)N [leupeptin] | unaffected |  | unaffected |  |  |  |
| Der p1: affinity purified house dust mite allergen with intrinsic cysteine protease activity, activated with cysteine (protein, UniProt P08176 99-320, looked up) Peptidase 1: TNACSINGNAPAEIDLRQMRTVTPIRMQGGCGSCWAFSGVAATESAYLAYRNQSLDLAEQELVDCASQHGCHGDTIPRGIEYIQHNGVVQESYYRYVAREQSCRRPNAQRFGISNYCQIYPPNVNKIREALAQTHSAIAVIIGIKDLDAFRHYDGRTIIQRDNGYQPNYHAVNIVGYSNAQGVDYWIVRNSWDTNWGDNGYGYFAANIDLMMIEEYPYVVIL |  |  |  |  |  | maximal constrictor response (Tmax) to ACh (rabbit ASM tissues [1]; ASM exposed 24 h to cysteine-activated Der p1 (1 μg/ml)): 133.7±8.4 g/g ASM wt. and 123.8±6.5 g/g ASM wt. and 119.0±8.2 g/g ASM wt.; effect on constrictor responsiveness (rabbit ASM tissues [1]; [5]): no effect; sensitivity to isoproterenol (pD50) (rabbit ASM tissues [2]; ASM exposed 24 h to Der p1, mean±SE): 5.99±0.04 -log M; maximal relaxation (Rmax) to isoproterenol (rabbit ASM tissues [2]; ASM exposed 24 h to cysteine-activated Der p1, mean±SE): 37.9±4.9% and 48.8±4.7%; effect on relaxant responsiveness (rabbit ASM tissues [2]; [5]): no effect; maximal enhanced expression of phosphorylated ERK1/2 above basal (pretreatment) level (ERK1/2; [6]): 5.8 fold; maximal enhanced expression of phosphorylated p38 MAP kinase above basal (pretreatment) level (p38 MAP kinase; [6]): 3.2 fold; expression of phosphorylated p38 MAP kinase relative to control (unstimulated) ASM (p38 MAP kinase): increased expression; isoproterenol-induced cAMP accumulation relative to control (untreated) ASM (ASM preparations): reduced |
